Assay results published in paper doi:10.1101/2021.07.02.450968v1 (biorxiv, 2021).

Tests used:
[1] = molecular target: T1, FABP5 (brain, B-FABP or epidermal, E-FABP) (Homo sapiens, UniProt Q01469); test: fluorescence polarisation competition vs BODIPY C4,C9; type: binding
[2] = molecular target: T2, GR (α sub-type) (Homo sapiens, UniProt P04150); test: GRE-SEAP reporter gene assay, COS-7; type: cell-based; settings: 24 h agonist treatment; nominal EC80 concentration from reporter curves
T2 sequence (P04150 1-777): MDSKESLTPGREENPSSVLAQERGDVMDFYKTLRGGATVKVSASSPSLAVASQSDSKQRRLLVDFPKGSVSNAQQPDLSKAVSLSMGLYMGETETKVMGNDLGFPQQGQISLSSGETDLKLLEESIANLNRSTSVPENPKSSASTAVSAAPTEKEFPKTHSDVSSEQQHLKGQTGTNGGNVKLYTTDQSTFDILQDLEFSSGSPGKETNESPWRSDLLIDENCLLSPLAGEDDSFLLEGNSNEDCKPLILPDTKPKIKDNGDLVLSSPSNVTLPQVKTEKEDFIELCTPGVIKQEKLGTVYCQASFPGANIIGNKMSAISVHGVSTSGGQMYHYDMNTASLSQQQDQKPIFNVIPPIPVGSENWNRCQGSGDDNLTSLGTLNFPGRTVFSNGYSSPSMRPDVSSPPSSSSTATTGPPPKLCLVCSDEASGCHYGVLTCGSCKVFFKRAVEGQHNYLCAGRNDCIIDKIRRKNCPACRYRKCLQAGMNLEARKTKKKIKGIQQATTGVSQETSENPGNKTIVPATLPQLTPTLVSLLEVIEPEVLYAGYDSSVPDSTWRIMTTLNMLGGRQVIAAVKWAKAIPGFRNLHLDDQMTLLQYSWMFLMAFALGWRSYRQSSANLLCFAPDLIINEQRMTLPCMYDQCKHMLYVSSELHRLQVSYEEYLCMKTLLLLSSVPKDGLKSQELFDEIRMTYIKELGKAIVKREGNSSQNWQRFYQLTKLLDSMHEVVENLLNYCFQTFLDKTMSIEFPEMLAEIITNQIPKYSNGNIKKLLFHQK

[3] = molecular target: T3, FABP1 (liver, L-FABP) (Homo sapiens, UniProt P07148); test: fluorescence polarisation competition vs BODIPY C4,C9; type: binding
T3 sequence (P07148 1-127): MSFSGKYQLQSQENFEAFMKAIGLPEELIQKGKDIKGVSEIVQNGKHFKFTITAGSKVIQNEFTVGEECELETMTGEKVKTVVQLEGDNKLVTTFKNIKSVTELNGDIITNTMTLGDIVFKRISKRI

[4] = molecular target: T4, FABP3 (heart, H-FABP) (Homo sapiens, UniProt P05413); test: as above; type: binding
T4 sequence (P05413 whole entry): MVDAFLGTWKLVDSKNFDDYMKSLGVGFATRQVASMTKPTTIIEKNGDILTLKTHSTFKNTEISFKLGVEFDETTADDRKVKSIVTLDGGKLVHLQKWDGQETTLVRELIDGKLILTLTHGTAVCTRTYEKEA

[5] = molecular target: T5, FABP2 (intestine, I-FABP) (Homo sapiens, UniProt P12104); test: as above; type: binding
T5 sequence (P12104 2-132): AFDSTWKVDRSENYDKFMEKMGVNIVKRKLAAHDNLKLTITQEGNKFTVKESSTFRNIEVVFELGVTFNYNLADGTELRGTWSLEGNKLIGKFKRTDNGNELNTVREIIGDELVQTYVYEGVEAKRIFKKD

[6] = molecular target: T6, FABP4 (adipocyte, A-FABP) (Homo sapiens, UniProt P15090); test: as above; type: binding
T6 sequence (P15090 whole entry): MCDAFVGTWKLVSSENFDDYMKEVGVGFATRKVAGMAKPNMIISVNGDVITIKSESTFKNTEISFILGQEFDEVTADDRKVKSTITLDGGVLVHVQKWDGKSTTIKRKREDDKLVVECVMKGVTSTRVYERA

[7] = molecular target: T3, FABP1 (liver, L-FABP); test: fluorescence polarisation saturation binding
[8] = molecular target: T6, FABP4 (adipocyte, A-FABP); test: fluorescence polarisation saturation binding
[9] = molecular target: T4, FABP3 (heart, H-FABP); test: fluorescence polarisation saturation binding
[10] = molecular target: T5, FABP2 (intestine, I-FABP); test: fluorescence polarisation saturation binding
[11] = molecular target: T1, FABP5 (brain, B-FABP or epidermal, E-FABP); test: fluorescence polarisation saturation binding

T1 sequence (Q01469 2-135): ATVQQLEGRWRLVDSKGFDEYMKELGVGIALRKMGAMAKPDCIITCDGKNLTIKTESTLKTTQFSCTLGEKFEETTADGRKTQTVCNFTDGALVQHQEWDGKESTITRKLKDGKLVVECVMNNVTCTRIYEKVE

| Ki [1] [µM] | EC80 [2] | Ki [3] [µM] | Ki [4] [µM] | Ki [5] [µM] | Ki [6] [µM] | Kd [7] [µM] | Kd [8] [µM] | Kd [9] [µM] | Kd [10] [µM] | Kd [11] [µM] | Compound |
| --- | --- | --- | --- | --- | --- | --- | --- | --- | --- | --- | --- |
| – | – | 79.4 | 117 | 3.39 | 2000 | – | – | – | – | – | C[C@H]1C[C@@H]2[C@H]([C@@H](O)C[C@@]3(C)[C@H]2CC[C@]3(O)C(=O)CO)[C@@]2(C)C=CC(=O)C=C12 [Methylprednisolone] |
| 21.9 | ~ 1 mM | 38.9 | 7.76 | – | 120 | – | – | – | – | – | C[C@]12CCC(=O)C=C1CC[C@@H]1[C@@H]2[C@@H](O)C[C@@]2(C)[C@H]1CC[C@]2(O)C(=O)CO [Hydrocortisone] |
| – | ~ 10 μM | 91.2 | – | 72.4 | – | – | – | – | – | – | C[C@H]1C[C@H]2[C@@H]3CCC4=CC(=O)C=C[C@]4(C)[C@@]3(F)[C@@H](O)C[C@]2(C)[C@@]1(O)C(=O)CO [β-methasone] |
| 9.33 | – | 288 | 7.59 | – | 35.5 | – | – | – | – | – | C[C@]12C=CC(=O)C=C1CC[C@@H]1[C@@H]2C(=O)C[C@@]2(C)[C@H]1CC[C@]2(O)C(=O)CO [Prednisone] |
| – | ~ 100 μM | 47.9 | 70.8 | 11 | 1150 | – | – | – | – | – | C[C@]12C=CC(=O)C=C1CC[C@@H]1[C@@H]2[C@@H](O)C[C@@]2(C)[C@H]1CC[C@]2(O)C(=O)CO [Prednisolone] |

More lines, now with the values behind:

| Compound | Ki [1] [µM] | EC80 [2] | Ki [3] [µM] | Ki [4] [µM] | Ki [5] [µM] | Ki [6] [µM] | Kd [7] [µM] | Kd [8] [µM] | Kd [9] [µM] | Kd [10] [µM] | Kd [11] [µM] |
| --- | --- | --- | --- | --- | --- | --- | --- | --- | --- | --- | --- |
| CCCC1O[C@@H]2C[C@H]3[C@@H]4CCC5=CC(=O)C=C[C@]5(C)[C@H]4[C@@H](O)C[C@]3(C)[C@]2(C(=O)CO)O1 (stereo partly drawn) [Budesonide] | 19.1 | ~ 10 μM | 85.1 | 0.0575 | – | – | – | – | – | – | – |
| CCCCc1ccc2n1[B-](F)(F)[N+]1=C(CCCCCCCCC(=O)O)C=CC1=C2 [BODIPY 500/510 C4, C9] | – | – | – | – | – | – | 0.09 | 0.42 | 0.02 | 4.1 | 0.16 |
| C[C@@H]1C[C@H]2[C@@H]3CCC4=CC(=O)C=C[C@]4(C)[C@@]3(F)[C@@H](O)C[C@]2(C)[C@@]1(O)C(=O)CO [Dexamethasone] | – | ~ 10 μM | 27.5 | 5.62 | – | 74.1 | – | – | – | – | – |
| C[C@]12CCC(=O)C=C1CC[C@@H]1[C@@H]2C(=O)C[C@@]2(C)[C@H]1CC[C@]2(O)C(=O)CO [Cortisone] | 129 | – | 302 | 107 | 16.6 | 977 | – | – | – | – | – |
